Laboratory results taken from patent US20090105124A1, “HETEROCYCLIC MODULATORS OF TGR5” (Kalypsys, Inc., priority 2007, published 2009).

Target: T1, human TGR5 (Homo sapiens, UniProt Q8TDU6)
T1 construct: expressed in transfected cells
T1 sequence (Q8TDU6 1-330): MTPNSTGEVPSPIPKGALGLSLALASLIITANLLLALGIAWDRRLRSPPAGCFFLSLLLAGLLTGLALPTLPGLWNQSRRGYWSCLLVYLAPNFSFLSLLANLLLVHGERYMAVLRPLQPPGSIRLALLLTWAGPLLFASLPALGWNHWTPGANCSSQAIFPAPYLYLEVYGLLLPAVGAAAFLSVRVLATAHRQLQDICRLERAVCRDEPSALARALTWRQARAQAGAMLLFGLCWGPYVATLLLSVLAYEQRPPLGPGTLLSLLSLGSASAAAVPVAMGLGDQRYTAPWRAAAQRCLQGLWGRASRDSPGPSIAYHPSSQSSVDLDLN
Experiment: cAMP production assay in HEK293 cells stably expressing TGR5 (LANCE cAMP, TR-FRET)
Assay type: cell-based
Details: stimulated with test compounds for 30 minutes, 1 mM IBMX, read-out: cAMP Production in 293-TGR5 Cells
Description: HEK293 cells stably expressing TGR5 (HEK293-TGR5) were established by stably transfecting HEK-293 cells with an expression vector (pcDNA 3.1, Invetrogen) inserted with human TGR5 cDNA using Fugene6 (Roche, Indianapolis, Ind.) according to conventional methods. Cells were grown in DMEM (invitrogen, Carlsbad, Calif.) supplemented with 10% FBS, 1% penicillin/streptomycin under geneticin selection. The presence of TGR5 transcripts in these cells was confirmed using branched DNA (bDNA, Genospectra, Inc., Fremont Calif.) following the manufacturer's protocol and using specific probes for human TGR5. cAMP production assay was performed in high throughput 1536 well format using LANCE cAMP detection kit (Perkin Elmer Inc., Boston, Mass.) according to the manufacturer's protocol. Briefly, HEK293-TGR5 cells were harvested using non-enzymatic cell dissociation buffer (Invitrogen, Carlsbad, Calif.) and suspended in DMEM supplemented with 0.1% FBS at a density of 800,000 cells/ml. Alexa antibody was added to the cell suspension, and 4 ul of the mixture was dispensed in white opaque tissue culture treated Greiner 1536 well plates (USA Scientific, Inc., Ocala, Fla.). After an overnight incubation at 37 C in an atmosphere of 10% CO2 and 95% humidity, 1 ul of 5 mM IBMX (Sigma, St. Louis, Mo.) solution in DMEM was dispensed for a final concentration of 1 mM. Cells were then stimulated with test compounds for 30 minutes, after which time 5 ul of detection reagent was added and incubated for 1-7 hrs at room temperature. TR-FRET signal was detected using the Viewlux (Perkin Elmer Inc., Boston Mass.). EC50 values were determined using Graph Pad Prizm analysis (GraphPad Software, Inc). The EC50 values for a wide range of bile acids generated from this assay were in agreement with the values published in the scientific literature. […] The symbol (+) denotes an EC50 value of ≦10 μM while the symbol (−) denotes an EC50 value of >10 μM (see Table 1).

Structure (SMILES)	EC50 [µM]
COc1cc(-c2nc3cnccc3c(=O)n2NCc2ccc(Cl)cc2)ccc1O [Example 22, 3-{[(4-Chlorophenyl)methyl]amino}-2-(4-hydroxy-3-methoxyphenyl)-3H,4H-pyrido[3,4-d]pyrimidin-4-one]	≤ 10
COc1cncc(-c2nc3sccc3c(=O)n2NCc2ccc(Cl)cc2)c1 [Example 34, 3-{[(4-Chlorophenyl)methyl]amino}-2-(5-methoxypyridin-3-yl)-3H,4H-thieno[2,3-d]pyrimidin-4-one]	≤ 10
O=c1c2cccnc2nc(-c2ccc(F)cc2)n1NCc1ccc(Br)cc1 [Example 4, 3-{[(4-Bromophenyl)methyl]amino}-2-(4-fluorophenyl)-3H,4H-pyrido[2,3-d]pyrimidin-4-one]	≤ 10
O=c1c2ncccc2nc(-c2ccc(F)cc2)n1NCc1ccc(Br)cc1 [Example 25, 3-{[(4-Bromophenyl)methyl]amino}-2-(4-fluorophenyl)-3H,4H-pyrido[3,2-d]pyrimidin-4-one]	≤ 10
O=c1c2nccnc2nc(-c2ccc(F)cc2)n1NCc1ccc(Cl)c(F)c1 [Example 45, 3-{[(4-Chloro-3-fluorophenyl)methyl]amino}-2-(4-fluorophenyl)-3,4-dihydropteridin-4-one]	≤ 10
O=c1c2cccnc2nc(-c2ccc(F)cc2)n1NCc1ccc(C(F)(F)F)cc1 [Example 11, 2-(4-Fluorophenyl)-3-({[4-(trifluoromethyl)phenyl]methyl}amino)-3H,4H-pyrido[2,3-d]pyrimidin-4-one]	≤ 10
Cc1cc(-c2nc3cnccc3c(=O)n2NCc2ccc(Cl)cc2)ccc1N [Example 20, 2-(4-Amino-3-methylphenyl)-3-{[(4-chlorophenyl)methyl]amino}-3H,4H-pyrido[3,4-d]pyrimidin-4-one]	≤ 10
COc1cc(-c2nc3ncccc3c(=O)n2NCc2ccc(Br)cc2)ccc1C [Example 13, 3-{[(4-Bromophenyl)methyl]amino}-2-(3-methoxy-4-methylphenyl)-3H,4H-pyrido[2,3-d]pyrimidin-4-one]	≤ 10
O=c1c2cccnc2nc(-c2ccc(O)cc2)n1NCc1ccc(Br)cc1 [Example 6, 3-{[(4-Bromophenyl)methyl]amino}-2-(4-hydroxyphenyl)-3H,4H-pyrido[2,3-d]pyrimidin-4-one]	≤ 10
O=c1c2cccnc2nc(-c2cccnc2)n1NCc1ccc(Cl)cc1 [Example 7, 3-{[(4-Chlorophenyl)methyl]amino}-2-(pyridin-3-yl)-3H,4H-pyrido[2,3-d]pyrimidin-4-one]	≤ 10
COc1cncc(-c2nc3nccnc3c(=O)n2NCc2ccc(Cl)cc2)c1 [Example 29, 3-{[(4-Chlorophenyl)methyl]amino}-2-(5-methoxypyridin-3-yl)-3,4-dihydropteridin-4-one]	≤ 10
COc1cncc(-c2nc3cnccc3c(=O)n2NCc2ccc(Cl)cc2)c1 [Example 16, 3-{[(4-Chlorophenyl)methyl]amino}-2-(5-methoxypyridin-3-yl)-3H,4H-pyrido[3,4-d]pyrimidin-4-one]	≤ 10
O=c1c2nccnc2nc(-c2ccc(F)cc2)n1NCc1ccc(Cl)cc1 [Example 43, 3-{[(4-Chlorophenyl)methyl]amino}-2-(4-fluorophenyl)-3,4-dihydropteridin-4-one]	≤ 10
O=c1c2sccc2nc(-c2ccc(F)cc2)n1NCc1ccc(Br)cc1 [Example 35, 3-{[(4-Bromophenyl)methyl]amino}-2-(4-fluorophenyl)-3H,4H-thieno[3,2-d]pyrimidin-4-one]	≤ 10
Cc1cncc(-c2nc3nccnc3c(=O)n2NCc2ccc(Cl)cc2)c1 [Example 47, 3-{[(4-Chlorophenyl)methyl]amino}-2-(5-methylpyridin-3-yl)-3,4-dihydropteridin-4-one]	≤ 10
COc1ccc(-c2nc3ncccc3c(=O)n2NCc2ccc(Br)cc2)cc1 [Example 5, 3-{[(4-Bromophenyl)methyl]amino}-2-(4-methoxyphenyl)-3H,4H-pyrido[2,3-d]pyrimidin-4-one]	≤ 10
O=c1c2cncnc2nc(-c2ccc(F)cc2)n1NCc1ccc(Cl)cc1 [Example 30, 3-{[(4-Chlorophenyl)methyl]amino}-2-(4-fluorophenyl)-3H,4H-pyrimido[4,5-d][1,3]diazin-4-one]	≤ 10

Structure (SMILES)	EC50 [µM]
O=c1c2cccnc2nc(-c2cncc(Cl)c2)n1NCc1ccc(Cl)cc1F [Example 1, 3-{[(4-Chloro-2-fluorophenyl)methyl]amino}-2-(5-chloropyridin-3-yl)-3H,4H-pyrido[2,3-d]pyrimidin-4-one]	≤ 10
O=c1c2ccsc2nc(-c2ccc(F)cc2)n1NCc1ccc(Br)cc1 [Example 31, 3-{[(4-Bromophenyl)methyl]amino}-2-(4-fluorophenyl)-3H,4H-thieno[2,3-d]pyrimidin-4-one]	≤ 10
O=c1c2cccnc2nc(-c2ccc(F)cc2)n1NCc1ccc(Cl)cc1 [Example 10, 3-{[(4-Chlorophenyl)methyl]amino}-2-(4-fluorophenyl)-3H,4H-pyrido[2,3-d]pyrimidin-4-one]	≤ 10
COc1cc(-c2nc3ncccc3c(=O)n2NCc2ccc(Cl)cc2)ccc1O [Example 15, 3-{[(4-Chlorophenyl)methyl]amino}-2-(4-hydroxy-3-methoxyphenyl)-3H,4H-pyrido[2,3-d]pyrimidin-4-one]	≤ 10
COc1cncc(-c2nc3ccsc3c(=O)n2NCC2CCC2)c1 [Example 28, 3-[(Cyclobutylmethyl)amino]-2-(5-methoxypyridin-3-yl)-3H,4H-thieno[3,2-d]pyrimidin-4-one]	≤ 10
O=c1c2ccncc2nc(-c2ccc(F)cc2)n1NCc1ccc(Br)cc1 [Example 17, 3-{[(4-Bromophenyl)methyl]amino}-2-(4-fluorophenyl)-3H,4H-pyrido[3,4-d]pyrimidin-4-one]	≤ 10
O=c1c2ccsc2nc(-c2ccc(F)cc2)n1NCc1ccc(Cl)cc1 [Example 32, 3-{[(4-Chlorophenyl)methyl]amino}-2-(4-fluorophenyl)-3H,4H-thieno[2,3-d]pyrimidin-4-one]	≤ 10
O=c1c2c(nc(-c3ccc(F)cc3)n1NCc1ccc(Br)cc1)CNCC2 [Example 51, 3-{[(4-Bromophenyl)methyl]amino}-2-(4-fluorophenyl)-3H,4H,5H,6H,7H,8H-pyrido[3,4-d]pyrimidin-4-one]	> 10
O=c1c2cccnc2nc(-c2ccccc2F)n1NCc1ccc(Cl)cc1 [Example 2, 3-{[(4-Chlorophenyl)methyl]amino}-2-(2-fluorophenyl)-3H,4H-pyrido[2,3-d]pyrimidin-4-one]	≤ 10
COc1cc(-c2nc3ncccc3c(=O)n2NCc2ccc(Cl)cc2)ccc1C [Example 14, 3-{[(4-Chlorophenyl)methyl]amino}-2-(3-methoxy-4-methylphenyl)-3H,4H-pyrido[2,3-d]pyrimidin-4-one]	≤ 10
O=c1c2nccnc2nc(-c2ccc(F)cc2)n1/N=C/c1ccc(Br)cc1 [Example 50, 3-[(E)-[(4-Bromophenyl)methylidene]amino]-2-(4-fluorophenyl)-3,4-dihydropteridin-4-one]	> 10
O=c1c2sccc2nc(-c2ccc(F)cc2)n1NCc1ccc(Cl)c(Cl)c1 [Example 36, 3-{[(3,4-Dichlorophenyl)methyl]amino}-2-(4-fluorophenyl)-3H,4H-thieno[3,2-d]pyrimidin-4-one]	≤ 10
Cn1ncc2nc(-c3ccc(F)cc3)n(NCc3ccc(Cl)cc3)c(=O)c21 [Example 41, 6-{[(4-Chlorophenyl)methyl]amino}-5-(4-fluorophenyl)-1-methyl-1H,6H,7H-pyrazolo[4,3-d]pyrimidin-7-one]	≤ 10
Cn1ncc2nc(-c3ccc(F)cc3)n(NCc3ccc(Br)cc3)c(=O)c21 [Example 40, 6-{[(4-Bromophenyl)methyl]amino}-5-(4-fluorophenyl)-1-methyl-1H,6H,7H-pyrazolo[4,3-d]pyrimidin-7-one]	≤ 10
COc1cncc(-c2nc3ccsc3c(=O)n2NCc2ccc(Cl)cc2)c1 [Example 27, 3-{[(4-Chlorophenyl)methyl]amino}-2-(5-methoxypyridin-3-yl)-3H,4H-thieno[3,2-d]pyrimidin-4-one]	≤ 10
O=c1c2cnccc2nc(-c2ccc(F)cc2)n1NCc1ccc(Cl)cc1 [Example 23, 3-{[(4-Chlorophenyl)methyl]amino}-2-(4-fluorophenyl)-3H,4H-pyrido[4,3-d]pyrimidin-4-one]	≤ 10
